Test results: patent US7332482B2, “Method for treating benign prostatic hyperplasia” (BioXell S.p.A., priority 2003, dated 2008)
Entries after “also recorded” stand apart in the source; their conditions may differ.

Legend:
5α reductase type 1 = target: T1, 5α reductase type 1 (Homo sapiens, UniProt P18405); assay: 5α reductase inhibition test in CHO 1827 cells; format: cell-based; settings: 10^−9 to 10^−5 M
T1 construct: host or cells: CHO 1827
T1 sequence (P18405 1-259): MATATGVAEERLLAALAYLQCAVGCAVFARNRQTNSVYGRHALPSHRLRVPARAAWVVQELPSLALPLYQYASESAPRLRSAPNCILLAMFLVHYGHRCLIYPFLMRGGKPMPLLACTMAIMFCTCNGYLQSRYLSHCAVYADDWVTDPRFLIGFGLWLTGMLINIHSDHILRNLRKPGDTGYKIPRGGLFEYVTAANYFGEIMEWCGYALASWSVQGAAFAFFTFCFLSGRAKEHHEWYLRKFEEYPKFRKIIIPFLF
Procedure: CHO-1827 and CHO-1829 cells, transfected with 5α reductase type 1 (5αR-1) or type 2 (5αR-2), respectively (see Steers W. Urology (2001) 58 p 17-24), were maintained in Ham's F12 medium supplemented with 5% FCS.
5α reductase inhibition assay was performed using CHO 1827 cells, transfected with 5αR-1, or CHO 1829 cells, transfected with 5αR-2, as described (see Guarna A, et al. Journal of Medicinal Chemistry (2000) 43 3718-3735.). Compound A was added in a concentration range from 10^−9 to 10^−5 M, using finasteride as a control inhibitor in each experiment.

rat ventral prostate [1] = assay: Clusterin expression (Northern, immunohistochemistry) and TUNEL in rat ventral prostate; format: in vivo
Procedure: Total RNA was extracted using RNAFast from Molecular System (San Diego, Calif.). Blotting, labelling, hybridization conditions and probes (rat clusterin 1.5 Kb full-length cDNA and GAPDH 1.2 Kb full-length cDNA) were performed according to the reported procedures (Bettuzzi et al, Biochemical Journal, (1989), 257, p 293-296 and Marinelli et al, Biochemistry and Cell Biology, (1994), 72, p 515-521). Quantitation of the autoradiograms was obtained by densitometric scanning using an LKB Ultrascan XL densitometer.
All the cryostatic sections obtained from controls and treated rats were processed in parallel as previously described (Astancolle et al, Journal of Endocrinology, (2000), 167, p 197-204). For every experimental condition, 3 alternate sections from 3 different rat prostates were examined. […] Counterstaining was performed with haematoxylin, and cover slips were mounted with Eukitt (O. Kindler GmbH & Co, Germany). Digital high-magnification colour images were acquired by a CCD camera through the microscope.
DNA fragmentation in prostate cryostatic sections, assessed by terminal deoxynucleotidyl transferase (TdT)-mediated dUTP nick end-labelling (TUNEL), was performed using the In Situ Cell Death Detection Kit (POD, Roche) as recommended by the manufacturer. TUNEL positive apoptotic nuclei were documented by digital high-magnification colour images acquired by a CCD camera through the microscope. Counterstaining was performed with eosin, and cover slips were mounted with Eukitt (O Kindler GmbH & Co, Germany).

rat ventral prostate [2] = assay: Ventral prostate growth in intact adult rats
From the text: Rat ventral prostate glands were rapidly excised out, weighed and quickly frozen in dry ice.

C=C1/C(=C\C=C2/CCC[C@]3(C)C([C@@H](C)C/C=C/C(O)(CC)CC)=CC[C@@H]23)C[C@@H](O)C[C@@H]1F [Compound A, 1-alpha-fluoro-25-hydroxy-16,23E-diene-26,27-bishomo-20-epi-cholecalciferol]
interference with 5α reductase type 1 (5α reductase type 1): did not interfere with either isoenzyme up to the micromolar range
DNA fragmentation / apoptosis in ventral prostate (TUNEL) (rat ventral prostate [1]; castrated T-supplemented rats, 100 and 300 μg/Kg, 9 administrations): induced an evident nuclear fragmentation in epithelial and stromal cells; also recorded: induced massive apoptosis in the majority of epithelial and stromal cells
clusterin staining and apoptosis in prostate (immunohistochemistry, TUNEL) (rat ventral prostate [1]; intact adult rats, Compound A 10, 30, 100 μg/Kg, finasteride 40 mg/Kg): induced clusterin expression; also recorded: dose-dependently stained for clusterin
clusterin mRNA expression in ventral prostate (Northern) (rat ventral prostate [1]; intact rats, one month, 30 and 100 μg/Kg): induced a sustained increase
clusterin mRNA expression in ventral prostate (Northern) (rat ventral prostate [1]; orchidectomized T-supplemented rats, Compound A 300 and 100 μg/Kg, F 40 mg/Kg): partially blunted the T-induced down-regulation of clusterin gene expression
maximal reduction of ventral prostate weight (rat ventral prostate [2]; one month oral, 300 μg/Kg): 30%
effect on ventral prostate weight (rat ventral prostate [2]; one-month oral treatment, 10-300 μg/Kg): significantly decreased
